Measured values from article PMC11643554, “Synthesis, Cytotoxicity and Antiproliferative Effect of New Pyrrole Hydrazones” (Molecules, 2024).
Where “and” joins values, the source holds several entries; their conditions need not be identical. Equal entries are not always repeated. Where two headings read alike, the source gives them in different places.

How the values were obtained:
[1] = system: melanoma cells; parameters: method as in PMID 25524552, PMID 29364157; conditions: standard cytostatics used in chemotherapy, compared with 1C in SH-4 melanoma cells; cited from earlier work
[2] = system: human melanoma SH-4; experiment: Antiproliferative activity, MTT dye reduction assay, SH-4; type: cell-based; conditions: for IC50: Homo sapiens, melanoma SH-4, MTT, 72 h, n = 6, read-out: Mean IC50 ± SD, SH-4; for SI (Selective index): SI = IC50 (non-tumor cell line HaCaT)/IC50 (tumor cell line SH-4)
Method: (§1) The antiproliferative activity of the studied substances was determined by MTT dye reduction assay. The assay is based on the metabolism of MTT by reductases in the mitochondria to formazan, the concentration of which can be determined photometrically. The measured absorbance is an indicator of cell viability and metabolic activity. Cells were seeded in 96-well cell culture plates (1 × 10^3 cells/well). Followed by incubation at 37 °C, 5% CO2 for 24 h. Followed by incubation for 72 h of the cells with the studied substances in twice increasing concentrations. After washing with PBS, 100 µL/well of MTT solution (0.5 mg/mL) was added. After 3 h of incubation, the 96-well plates were washed with PBS, and 100 µL/well of lysing solution (DMSO/Ethanol = 1/1) was added. Optical density was measured at a wavelength of 540 nm. The antiproliferative activity expressed in % of the negative control was calculated according to the following formula:Antiproliferative activity (%) = (1 − (OD540 (sample)/OD540 (negative control))) × 100
(§2) The IC50 values (a concentration that inhibited 50% cell proliferation) were calculated using non-linear regression analysis (GraphPad Prizm8 Software). The statistical analysis included the application of one-way ANOVA followed by Bonferroni’s post hoc test. p < 0.05 was accepted as the lowest level of statistical significance. All results are presented as mean ± SD.

[3] = system: SH-4 cells; experiment: Annexin V-FITC/PI flow cytometry assay (apoptosis); type: cell-based, human; conditions: SH-4, 48 h; for Early apoptosis (Annexin V+/PI−, Q3) / Late apoptosis (Annexin V+/PI+, Q2) / Live (viable cells, Annexin V−/PI−, Q4) / Necrosis (Annexin V−/PI+, Q1): 1 6 µM, 1A 260 µM, 1B 260 µM, cisplatin 20 µM; for Early apoptosis (Annexin V+/PI−, Q3) / Late apoptosis (Annexin V+/PI+, Q2) / Live (viable cells, Annexin V−/PI−, Q4) / Necrosis (Annexin V−/PI+, Q1) / population fraction of total apoptotic cells: 1C 40 µM, 1D 8 µM
Method: Apoptosis was discriminated with the annexin V-FITC/PI test according to the manufacturer’s protocol (SIGMA-ALDRICH APOAF). […] After completion of each drug incubation, cell media that may contain cells in suspension was centrifuged at 350× g for 5 min. Subsequently, the cell monolayers were washed once with PBS, and cells were detached with trypsin and then collected together with a centrifuged pellet. The cells were washed twice with cold PBS and then resuspended in a Binding Buffer (0.1 M Hepes/NaOH (pH 7.4), 1.4 M NaCl, 25 mM CaCl2) at a concentration of 1 × 10^5 cells/mL. The cells were incubated with 5 µL of FITC Annexin V and 10 µL PI for 20 min at RT (25 °C) in the dark. The analysis was performed with BD FACS DIVA software version 7.0 (BD Biosciences, Franklin Lakes, NJ, USA). Data were analyzed as follows: lower left quadrant, viable cells (Annexin V−/PI−); lower right quadrant, early apoptotic cells (Annexin V+/PI−); upper right quadrant, late apoptotic cells (annexin V+/PI+); upper left quadrant, necrotic cells (annexin V−/PI+). Three independent experiments were performed, with two replicates per experiment.

[4] = system: SH-4 cells; experiment: Cell cycle analysis, PI stain, flow cytometry; type: cell-based, human; conditions: SH-4, 48 h; for effect on cell cycle distribution (in words): at IC50 doses; for G2 phase, percentage of cells / S phase, percentage of cells / G0/G1 phase, percentage of cells: 1 6 µM, 1A 260 µM, 1B 260 µM, 1C 40 µM, 1D 8 µM, cisplatin 20 µM; for G2 phase, percentage of cells: control 12.1; for S phase, percentage of cells: control 21.6; for G0/G1 phase, percentage of cells: control 63.6
Method: After incubation, cells were washed twice with ice-cold PBS and fixed with ice-cold 70% ethanol at −20 °C overnight. The cells were treated with 20 µg/mL RNase A at 37 °C for 60 min, then washed with PBS and finally stained with 20 µg/mL PI in the dark for 30 min. The cellular DNA content for the cell cycle distribution analysis was performed with the system software (BD FACS DIVA software (BD Biosciences, Franklin Lakes, NJ, USA)), plotting at least 10,000 events per sample. Three independent experiments were performed, with two replicates per experiment.

[5] = system: human keratinocytes HaCaT; experiment: Antiproliferative activity, MTT dye reduction assay, HaCaT; type: cell-based; conditions: Homo sapiens, non-tumor keratinocytes HaCaT, 72 h, n = 6, read-out: Mean IC50 ± SD, HaCaT
Method: as §1, §2

[6] = system: mouse embryonic fibroblasts BALB 3T3 clone A31; experiment: BALB 3T3 Neutral Red Uptake safety test (cytotoxicity/phototoxicity); type: cell-based; conditions: PIF = CC50 −Irr/CC50 +Irr; PIF < 2 not phototoxic, 2 < PIF < 5 probable phototoxicity, PIF > 5 phototoxic
Method: (§3) The Neutral Red Uptake in vitro assay is a colorimetric method for assessing cell viability. This method is based on the ability of living cells to incorporate Neutral Red dye into lysosomes. Mouse embryonic fibroblasts were seeded at 1 × 10^4 cells/100 μL culture medium/well in 96-well cell culture microplates. The cells were incubated for 24 h to allow cell adhesion. The cells were then treated with a solution of the test substances in double-increasing concentrations (from 15 to 4000 μM). The phototoxicity test was performed in parallel on a second 96-well plate, which was irradiated with a solar simulator (LED lamp—Helios-iO (SERIC Ltd., Tokyo, Japan) for 10 min (irradiation dose 0.86 J). After 24 h of incubation, a culture medium containing Neutral Red was added. After 3 h of incubation, the wells were washed with PBS, and a Desorb solution (50% Ethanol, 1% Acetic acid, 49% dH2O) was added. The optical density (OD) was measured by a microplate reader at λ = 540 nm. The percentage of cytotoxicity was calculated according to the following formula:Cytotoxicity (%) = (1 − (OD540 (sample)/OD540 (negative control))) × 100 Phototoxicity is expressed by Photoirritation factor (PIF), PIF = CC50 − Irr/CC50 +Irr* * Irradiation

[7] = as above; type: cell-based, mouse; conditions: mouse, BALB 3T3 clone A31 embryonic fibroblasts, BALB 3T3, NRU, 24 h incubation, n = 6
Method: as §3

[8] = irradiated with solar simulator 10 min (0.86 J), read-out: Mean CC50 ± SD, +Irr
[9] = without irradiation, read-out: Mean CC50 ± SD, −Irr

In the case of `N.N.O=C([O-])C1(C(=O)[O-])CCC1.[Pt+2]` [Carboplatin], the IC50 [1] is given as 18.2 µM.

With `CCOC(=O)c1cc(-c2ccc(Cl)cc2)n(C(Cc2ccccc2)C(=O)N/N=C/c2[nH]c(C)c(C(=O)OCC)c2C)c1C` (stereo not drawn) [Compound 1B, Ethyl(E)-5-(4-chlorophenyl)-1-(1-(2-((4-(ethoxycarbonyl)-3,5-dimethyl-1H-pyrrol-2-yl)methylene)hydrazineyl)-1-oxo-3-phenylpropan-2-yl)-2-methyl-1H-pyrrole-3-carboxylate] the IC50 [2] was 258 ± 16.1 µM, the “SI (Selective index)” value [2] was 2.11 and the “apoptotic potential higher than α-aldehyde derivative 1A” value ([3]; 260 µM) was 14%. The “Early apoptosis (Annexin V+/PI−, Q3)” value [3] was 48.9%, the “Late apoptosis (Annexin V+/PI+, Q2)” value [3] was 6.1% and the “Live (viable cells, Annexin V−/PI−, Q4)” value [3] was 44.6%. The “Necrosis (Annexin V−/PI+, Q1)” value [3] was 0.46%, the “effect on cell cycle distribution (in words)” value (“effect” below) [4] was “slight increase in the S phase population” and the “G2 phase, percentage of cells” value [4] was 13.6%. The “S phase, percentage of cells” value [4] was 34%, the “G0/G1 phase, percentage of cells” value [4] was 50.2% and the IC50 [5] was 544 ± 26.8 µM. The melting point was 129 to 132 °C, the “PIF (Photo Irritation Factor)” value [6] was 0.96 and the CC50 at 24 h [7, 8] was 2270 ± 55.4 µM. It also gave a CC50 at 24 h [7, 9] of 2180 ± 154 µM.

In the case of `CCOC(=O)c1cc(-c2ccc(Cl)cc2)n(C(Cc2ccccc2)C(=O)N/N=C/c2c(C)[nH]c(C(=O)OCC)c2C)c1C` (stereo not drawn) [Compound 1C, Ethyl(E)-4-((2-(2-(5-(4-chlorophenyl)-3-(ethoxycarbonyl)-2-methyl-1H-pyrrol-1-yl)-3-phenylpropanoyl)hydrazineylidene)methyl)-3,5-dimethyl-1H-pyrrole-2-carboxylate], the IC50 [2] is reported as 44.6 ± 3.51 µM, the “SI (Selective index)” value [2] is reported as 3.83 and the “Early apoptosis (Annexin V+/PI−, Q3)” value [3] is reported as 39%. The “Late apoptosis (Annexin V+/PI+, Q2)” value [3] was 7.13%, the “Live (viable cells, Annexin V−/PI−, Q4)” value [3] was 53.4% and the “Necrosis (Annexin V−/PI+, Q1)” value [3] was 0.43%. For the same molecule, the “population fraction of total apoptotic cells” value [3] was “around 46%”, the “effect” value [4] was “induction of S-phase arrest” and the “G2 phase, percentage of cells” value [4] was 24.5%. The “S phase, percentage of cells” value [4] was 38.5% and 38%, the “G0/G1 phase, percentage of cells” value [4] was 35% and the IC50 [5] was 171 ± 4.09 µM. For the same molecule, the melting point was > 230 °C, the “PIF (Photo Irritation Factor)” value [6] was 0.95 and the CC50 at 24 h [7, 8] was 1750 ± 31.7 µM. For the same molecule, the CC50 at 24 h [7, 9] was 1670 ± 41.5 µM.

With `CCOC(=O)c1cc(-c2ccc(Cl)cc2)n(C(Cc2ccccc2)C(=O)N/N=C/c2c(C)[nH]c(C)c2C(=O)OCC)c1C` (stereo not drawn) [Compound 1D, Ethyl(E)-5-(4-chlorophenyl)-1-(1-(2-((4-(ethoxycarbonyl)-2,5-dimethyl-1H-pyrrol-3-yl)methylene)hydrazineyl)-1-oxo-3-phenylpropan-2-yl)-2-methyl-1H-pyrrole-3-carboxylate] the IC50 [2] was 8.72 ± 0.6 µM, the “SI (Selective index)” value [2] was 1.26 and the “Early apoptosis (Annexin V+/PI−, Q3)” value [3] was 32.5%. The “Late apoptosis (Annexin V+/PI+, Q2)” value [3] was 6.51%, the “Live (viable cells, Annexin V−/PI−, Q4)” value [3] was 60.2% and the “Necrosis (Annexin V−/PI+, Q1)” value [3] was 0.78%. The “population fraction of total apoptotic cells” value [3] was 39%, the “effect” value [4] was “induction of S-phase arrest” and the “G2 phase, percentage of cells” value [4] was 23.2%. For the same molecule, the “S phase, percentage of cells” value [4] was 46.4% and 46%, the “G0/G1 phase, percentage of cells” value [4] was 28.3% and the IC50 [5] was 11 ± 0.42 µM. For the same molecule, the melting point was > 230 °C, the “PIF (Photo Irritation Factor)” value [6] was 1.13 and the CC50 at 24 h [7, 8] was 3370 ± 130 µM. The CC50 at 24 h [7, 9] was 3800 ± 185 µM.

In the case of `CN(C)C(=O)c1cc2cnc(Nc3ccc(N4CCNCC4)cn3)nc2n1C1CCCC1` [Ribociclib], the IC50 [1] is given as 35 µM.

For `Cn1nnc2c(C(N)=O)ncn2c1=O` [Temozolomide], the IC50 [1] is given as 50 µM.
